Results from patent US6410561B1, “Amide derivatives and nociceptin antagonists” (Japan Tobacco Inc., priority 1998, dated 2002).
Read-outs that look alike come from different tables or passages of the source.

Legend:
ORL-1 receptor = biological target: T1, ORL-1 receptor (Homo sapiens, UniProt P41146); test: ORL1 receptor binding assay ([3H]nociceptin); conditions: for Ki: calculated from IC50 and Kd of [3H]nociceptin; for IC50: membrane of human ORL-1 expression cells, [3H]nociceptin 0.5 nM
T1 construct: expressed in transfected cells
Description: ORL1 Receptor Binding Assay
A cell membrane suspension obtained from human ORL-1 expression cells was adjusted with Tris buffer [50 mM Tris, 2 mM EDTA, 0.1 mM (p-Amidinophenyl)methanesulfonyl Fluoride Hydrochloride (p-APMSF), 2 mg/ml BSA] to membrane protein amount of about 25 μg/ml (2.5 μg/well). This was mixed with [^3H]nociceptin (diluted with Tris buffer to a final concentration of 0.5 nM) and test compound (diluted with Tris buffer to a final concentration of 10 nM-10 μM), and the mixture was incubated at room temperature for 60 min. The membrane was recovered on a G/F-B filter (Packard, Unifilter 96GF/B) using a cell harvester and the reaction was stopped. After washing 3 times, the filter was dried at 42° C. for 1 hr. A scintillation solution (Packard, microscint-20) was added and the radioactivity (Packard, Top count A9912V) was assayed.
(§1) The nonspecific binding was the binding in the presence of 1 μM nociceptin and the difference between the total binding and nonspecific binding was taken as the specific binding. IC50 was calculated from inhibition of specific binding at each concentration of the compound, and Ki value of the test compound was calculated from this value and Kd value of [^3H]nociceptin.

allodynia model = test: Allodynia test (intrathecal nociceptin, tactile stimulation); assay type: in vivo, Mice; conditions: Mus musculus, read-out: Allodynia M.E.D. (minimum effective dose)
Description: Mice (Crj, ICR, 4-week-old, male) were intrathecally administered with nociceptin (50 pg/5 μl) without anesthesia. For 20 min after administration and at 5 min intervals, an area from lateral region to tail of the mice was rubbed with a brush and the response of the mice was observed. The evaluation followed the criteria of 0; no change, 1; run or cry upon tactile stimulation, and 2; cry loud or dash away upon tactile stimulation. The test compound was suspended in a 0.5% MC solution and orally administered 60 min before nociceptin administration. The significant difference of the score of each administration group at 20 min after nociceptin administration from the group administered with solvent was analyzed with Mann-Whitny U-test.

Mice = test: Hot-plate test; assay type: in vivo; conditions: Mus musculus, 1 h, oral, 60 min after administration, 55.5°C, read-out: Hot-plate M.E.D. (minimum effective dose)
Description: Mice (Crj, ICR, 4-week-old, male) were placed on a hot-plate (temperature 55.5±0.5° C.) and the time until the mice jumped and tried to run away was recorded. The mice were grouped according to the time and body weight so that the groups were evenly membered. The test compound was suspended in a 0.5% methylcellulose (MC) solution and orally administered to mice. After 60 min, the mice were again placed on a hot-plate and the time until they licked the hindlimb or jumped and tried to run away was recorded. The significant difference from the group administered with solvent was analyzed with ANOVA followed by Dunnett two-tailed test.

μ receptor = biological target: T2, μ receptor (Rattus norvegicus, UniProt P33535); test: μ receptor binding assay ([3H]DAMGO); conditions: for Ki: calculated from IC50 and Kd of [3H]DAMGO; for IC50: rat cerebrum membrane, [3H]DAMGO 1 nM
T2 construct: Rat cerebrum membrane standard sample; from tissue; host or cells: rat cerebrum membranes
Description: Rat cerebrum membrane standard sample (final concentration 0.755 mg·protein/ml), [^3H]DAMGO (Try-D-Ala-Gly-NMe-Phe-Gly-ol) [diluted with Tris buffer (50 mM Tris-HCl, 0.1 mM p-APMSF, 2 mg/ml BSA (pH=7.4)) to a final concentration of 1 nM] and test compound (diluted with Tris buffer to a final concentration of 10 nM-10 μM) were mixed, and the mixture was incubated at room temperature for 90 min. The membrane was recovered on a G/F-B filter (same as above) using a cell harvester and the reaction was stopped. After washing 3 times, the filter was dried at 42° C. for 1 hr. A scintillation solution (same as above) was added and the radioactivity (same as above) was assayed.
as §1, with “10” for “1”, “naloxone” for “nociceptin”, “[^3H]DAMGO.” for “[^3H]nociceptin.”

[1] = mice, oral, 60 min before nociceptin 50 pg i.t., score at 20 min

T1 sequence (P41146 whole entry): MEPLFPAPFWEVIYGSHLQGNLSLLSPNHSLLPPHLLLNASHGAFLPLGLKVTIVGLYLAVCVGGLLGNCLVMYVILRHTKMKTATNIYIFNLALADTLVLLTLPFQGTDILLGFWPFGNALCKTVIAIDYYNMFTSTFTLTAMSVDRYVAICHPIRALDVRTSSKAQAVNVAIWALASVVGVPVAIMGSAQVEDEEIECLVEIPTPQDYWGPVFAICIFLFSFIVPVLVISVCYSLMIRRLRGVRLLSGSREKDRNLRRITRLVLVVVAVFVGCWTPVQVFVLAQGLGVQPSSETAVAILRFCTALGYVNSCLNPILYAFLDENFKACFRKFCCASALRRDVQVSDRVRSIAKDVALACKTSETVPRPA
T2 sequence (P33535 whole entry): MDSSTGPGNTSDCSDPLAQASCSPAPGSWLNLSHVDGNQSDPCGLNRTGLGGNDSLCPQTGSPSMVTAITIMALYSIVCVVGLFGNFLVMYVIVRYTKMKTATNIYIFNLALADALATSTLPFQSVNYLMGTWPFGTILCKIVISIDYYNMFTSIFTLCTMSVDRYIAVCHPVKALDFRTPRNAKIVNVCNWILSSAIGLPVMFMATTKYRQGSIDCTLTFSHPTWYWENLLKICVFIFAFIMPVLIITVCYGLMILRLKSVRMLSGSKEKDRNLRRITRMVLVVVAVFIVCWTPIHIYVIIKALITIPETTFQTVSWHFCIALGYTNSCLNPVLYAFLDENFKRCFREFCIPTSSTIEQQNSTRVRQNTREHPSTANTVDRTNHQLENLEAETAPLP

| Compound | Ki (ORL-1 receptor) | IC50 (ORL-1 receptor) | minimal effective dose (allodynia model; [1]) | minimal effective dose (Mice) | Ki (μ receptor) | IC50 (μ receptor) | melting point | minimal effective dose (allodynia model; po) |
| --- | --- | --- | --- | --- | --- | --- | --- | --- |
| Cc1cccc(OCc2ccccc2C(=O)Nc2ccc3nc(C)cc(N)c3c2)c1 [Example 9, N-(4-amino-2-methyl-6-quinolyl)-2-[(3-methylphenoxy)methyl]benzamide] | 16 nM | 320 nM | 1 mg/kg | < 3 mg/kg | 764 nM | 2030 nM | – | – |
| Cc1cc(N)c2cc(NC(=O)c3ccccc3COc3ccc(Cl)cc3)ccc2n1.Cl [Example 11, N-(4-amino-2-methyl-6-quinolyl)-2-[(4-chlorophenoxy)methyl]benzamide hydrochloride] | 3 nM | 60 nM | 0.3 mg/kg | 3 mg/kg | 424 nM | 1120 nM | 245 °C | – |
| CC(=O)c1ccc(OCc2ccccc2C(=O)Nc2ccc3nc(C)cc(N)c3c2)cc1.Cl [Example 12, N-(4-amino-2-methyl-6-quinolyl)-2-[(4-acetylphenoxy)methyl]benzamide hydrochloride] | 8 nM | 160 nM | 0.3 mg/kg | 3 mg/kg | 254 nM | 670 nM | 270 °C | – |
| COc1ccc(OCc2ccccc2C(=O)Nc2ccc3nc(C)cc(N)c3c2)cc1.Cl [Example 4, N-(4-amino-2-methyl-6-quinolyl)-2-[(4-methoxyphenoxy)methyl]benzamide hydrochloride] | – | – | – | < 3 mg/kg | 453 nM | 1260 nM | 276 °C | < 1 mg/kg |
| Cc1cc(N)c2cc(NC(=O)c3ccccc3COc3ccc(C(C)(C)C)cc3)ccc2n1.Cl [Example 29, N-(4-amino-2-methyl-6-quinolyl)-2-[(4-tert-butylphenoxy)methyl]benzamide hydrochloride] | 9 nM | 160 nM | > 0.3 mg/kg | 3 mg/kg | 414 nM | 1050 nM | 268 °C | – |
| CCc1cc(N)c2cc(NC(=O)c3ccccc3COc3ccc(Cl)cc3)ccc2n1.Cl [Example 49] | 2 nM | 40 nM | 0.3 mg/kg | 1 mg/kg | 464 nM | 1260 nM | – | – |
| Cc1cc(N)c2cc(NC(=O)c3ccccc3COc3ccc(Cl)c(Cl)c3)ccc2n1.Cl [Example 26, N-(4-amino-2-methyl-6-quinolyl)-2-[(3,4-dichlorophenoxy)methyl]benzamide hydrochloride] | 4 nM | 80 nM | 0.3 mg/kg | 1 mg/kg | 479 nM | 1220 nM | 223 °C | – |
| Cc1cc(N)c2cc(NC(=O)c3ccccc3CCCCCOc3ccccc3)ccc2n1.Cl [Example 64] | 73 nM | 1390 nM | > 3 mg/kg | – | 1380 nM | 3610 nM | 253 °C | – |
| Cc1cc(N)c2cc(NC(=O)c3ccccc3COc3ccc(Br)cc3)ccc2n1.Cl [Example 33, N-(4-amino-2-methyl-6-quinolyl)-2-[(4-bromophenoxy)methyl]benzamide hydrochloride] | 5 nM | 90 nM | 0.3 mg/kg | – | 565 nM | 1440 nM | 252 °C | – |
| CCCc1ccc(OCc2ccccc2C(=O)Nc2ccc3nc(C)cc(N)c3c2)cc1.Cl [Example 34, N-(4-amino-2-methyl-6-quinolyl)-2-[(4-propylphenoxy)methyl]benzamide hydrochloride] | 8 nM | 140 nM | 0.3 mg/kg | 3 mg/kg | 888 nM | 2370 nM | – | – |
| Cc1cc(N)c2cc(NC(=O)c3ccccc3CCCCCCOc3ccccc3)ccc2n1.Cl [Example 66] | 108 nM | 2000 nM | > 3 mg/kg | – | – | – | 210 °C | – |
| Cc1cc(C)cc(OCc2ccccc2C(=O)Nc2ccc3nc(C)cc(N)c3c2)c1.Cl [Example 5, N-(4-amino-2-methyl-6-quinolyl)-2-[(3,5-dimethylphenoxy)methyl]benzamide hydrochloride] | 28 nM | 520 nM | 3 mg/kg | – | 505 nM | 1340 nM | 265 °C | – |
| Cc1ccc(OCc2ccccc2C(=O)Nc2ccc3nc(C)cc(N)c3c2)c(Cl)c1.Cl [Example 43, N-(4-amino-2-methyl-6-quinolyl)-2-[(2-chloro-4-methylphenoxy)methyl]benzamide hydrochloride] | 5 nM | 110 nM | 0.3 mg/kg | 1 mg/kg | 785 nM | 2100 nM | – | – |
| Cc1cc(N)c2cc(NC(=O)c3ccccc3COc3ccc(Cl)c(C)c3)ccc2n1.Cl [Example 42, N-(4-amino-2-methyl-6-quinolyl)-2-[(4-chloro-3-methylphenoxy)methyl]benzamide hydrochloride] | 4 nM | 80 nM | 0.3 mg/kg | 1 mg/kg | 745 nM | 1990 nM | – | – |
| COc1cccc(OCc2ccccc2C(=O)Nc2ccc3nc(C)cc(N)c3c2)c1OC.Cl [Example 8, N-(4-amino-2-methyl-6-quinolyl)-2-[(2,3-dimethoxyphenoxy)methyl]benzamide hydrochloride] | 50 nM | 940 nM | 3 mg/kg | – | 183 nM | 490 nM | 196 °C | – |
| CCc1ccc(OCc2ccccc2C(=O)Nc2ccc3nc(C)cc(N)c3c2)cc1.Cl [Example 1, N-(4-amino-2-methyl-6-quinolyl)-2-[(4-ethylphenoxy)methyl]-benzamide hydrochloride] | 7 nM | 120 nM | 0.3 mg/kg | 1 mg/kg | 570 nM | 1520 nM | – | – |
| CCc1ccc(OCc2ccccc2C(=O)Nc2ccc3nc(CC)cc(N)c3c2)c(Cl)c1 [Example 90] | 5 nM | 110 nM | – | 3 mg/kg | 442 nM | 1180 nM | – | – |
| Cc1cc(N)c2cc(NC(=O)c3ccccc3COc3ccc([N+](=O)[O-])cc3)ccc2n1 [Example 7, N-(4-amino-2-methyl-6-quinolyl)-2-[(4-nitrophenoxy)methyl]benzamide] | – | – | 0.3 mg/kg | 3 mg/kg | 346 nM | 960 nM | 148 °C | – |
| Cc1cc(N)c2cc(NC(=O)c3ccccc3COc3ccccc3)ccc2n1.Cl [Example 3, N-(4-amino-2-methyl-6-quinolyl)-2-(phenoxymethyl)benzamide hydrochloride] | 79 nM | 1470 nM | 3 mg/kg | 30 mg/kg | 417 nM | 1110 nM | – | – |
| Cc1cc(N)c2cc(NC(=O)c3ccccc3COc3ccc(C(F)(F)F)cc3)ccc2n1.Cl [Example 18, N-(4-amino-2-methyl-6-quinolyl)-2-[(4-trifluoromethylphenoxy)methyl]benzamide hydrochloride] | 4 nM | 90 nM | 0.3 mg/kg | – | 393 nM | 1040 nM | 220 °C | – |
